What all share (assay type): physicochemical
Data set [1] can be described thus: Stability of dioxetane on silica (TLC versus NMR). The conditions noted are these: TLC on silica compared with 1H NMR. The protocol:
(c) Synthesis of 4-ethylthio-4-(3-pivaloyloxyphenyl)spiro[1,2-dioxetane-3,2'-tricyclo[3.3.1.1^3,7 ]decane] (2). A small photooxygenation apparatus was charged with 60 mg (0.16 mmol) of the vinyl sulfide, 180 mg of polymer-bound Rose Bengal (U.S. Pat. No. 4,315,998), and 20 mL of CH2 Cl2 dried over MgSO4. The resulting mixture was then cooled to -78° C. with oxygen bubbling through it. After several minutes, the reaction solution was irradiated with a 1000 W sodium lamp for 25 min. […] The sensitizer was filtered off, the solvent evaporated at 0° C. and the material examined by ^1 H NMR.

Data set [2] can be described thus: First order decay of chemiluminescence (base-induced decay) of hydroxyphenyl alkylthio dioxetane in alkaline buffer with surfactant enhancers. The note with it: 0.2M 221 buffer pH 9.6, 0.88 mM Mg+2, ambient temperature. The protocol:
Comparison of Rates of Base-Induced Decay of a Hydroxyphenyl Alkylthio Dioxetane. The first order decay of chemiluminescence of dioxetane 3 in 0.2M 221 buffer, pH 9.6 containing 0.88 mM Mg^+2 and the surfactant enhancers shown below was measured at ambient temperature. Surfactant A is CTAB, B is poly(vinylbenzyltributylphosphonium chloride), C is poly(vinylbenzyltributylphosphonium chloride)-co-poly(vinylbenzyltrioctylphosphonium chloride), D is 1-trioctylphosphoniummethyl-4-tributylphosphoniummethylbenzene dichloride.

Data set [3] can be described thus: First order decay of chemiluminescence (base-induced decay) of hydroxyphenyl alkoxy or aryloxy dioxetanes in alkaline buffer. The note with it: 37° C.; 0.2M 221 buffer, pH 9.6, 0.88 mM Mg+2, 1.0 mg/mL 1-trioctylphosphoniummethyl-4-tributylphosphoniummethylbenzene dichloride. The protocol:
Comparison of Rates of Base-Induced Decay of Hydroxy-phenyl Alkoxy or Aryloxy Dioxetanes. The first order decay of chemiluminescence of dioxetanes 14-19 in 0.2M 2-methyl-2-amino-1-propanol (221) buffer, pH 9.6 containing 0.88 mM Mg^+2 and 1.0 mg/mL of 1-trioctylphosphoniummethyl-4-tributylphosphoniummethylbenzene dichloride was measured at 37° C. in a Turner Designs (Sunnyvale, Calif.) model TD-20e luminometer. The half-lives of decay of chemiluminescence (t1/2) of hydroxy-dioxetanes correlate with the times required to reach the maximum light intensity (Imax) in the alkaline phosphatase-triggered decomposition of the corresponding phosphate-dioxetanes under the same conditions. […] It is expected that, for example, the phosphate derivatives of dioxetanes 14-19 as well as others which can be produced by the process described herein will be useful in alkaline phosphatase-linkedassays known in the art.

Results on seven compounds are retold here after patent US5883287A, “Vinyl sulfide compounds and a process for their preparation” (Lumigen, Inc., priority 1997, dated 1999).

For `CCSC1(c2cccc(OC(=O)C(C)(C)C)c2)OOC12C1CC3CC(C1)CC2C3` (stereo not shown) [Dioxetane 2, 4-Ethylthio-4-(3-pivaloyloxyphenyl)spiro[1,2-dioxetane-3,2'-tricyclo-[3.3.1.1^3,7]decane]], in data set [1], the stability on silica result is reported as “less stable on silica”. For the compound `Oc1cccc(C2(Sc3ccc(F)cc3)OOC23C2CC4CC(C2)CC3C4)c1` (stereo not shown) [Dioxetane 3, 4-(p-Fluorophenylthio)-4-(3-hydroxyphenyl)spiro[1,2-dioxetane-3,2'-tricyclo[3.3.1.1^3,7]decane]], the “t1/2 of decay of chemiluminescence” value in data set [2] (Surfactant A (CTAB) 0.41 g/L) came to 11.2 min; in data set [2] (Surfactant B (poly(vinylbenzyltributylphosphonium chloride)) 0.5 g/L) it was 4.2 min; in data set [2] (Surfactant C (poly(vinylbenzyltributylphosphonium chloride)-co-poly(vinylbenzyltrioctylphosphonium chloride)) 0.5 g/L) it was 2.9 min; in data set [2] (Surfactant D (1-trioctylphosphoniummethyl-4-tributylphosphoniummethylbenzene dichloride) 1.0 g/L), 2.0 min. As to `Oc1cccc(C2(OCC(Cl)(Cl)Cl)OOC23C2CC4CC(C2)CC3C4)c1` (stereo not shown) [Dioxetane 15, 4-(3-Hydroxyphenyl)-4-(2,2,2-trichloroethoxy)spiro[1,2-dibxetane-3,2'-tricyclo[3.3.1.1^3,7]decane]], the “t1/2 of decay of chemiluminescence” value in data set [3] amounted to 3.7 min.

With `Oc1cccc(C2(OCC(Cl)Cl)OOC23C2CC4CC(C2)CC3C4)c1` (stereo not shown) [Dioxetane 16, 4-(2,2-Dichloroethoxy)-4-(3-hydroxyphenyl)spiro[1,2-dioxetane-3,2'-tricyclo-[3.3.1.1^3,7]decane]], the “t1/2 of decay of chemiluminescence” value in data set [3] is given as 4.1 min.

For the compound `Oc1cccc(C2(OCC(F)(F)C(F)(F)F)OOC23C2CC4CC(C2)CC3C4)c1` (stereo not shown) [Dioxetane 17, 4-(3-Hydroxyphenyl)-4-(2,2,3,3,3-pentafluoropropoxy)spiro[1,2-dioxetane-3,2'-tricyclo[3.3.1.1^3,7]decane]], the “t1/2 of decay of chemiluminescence” value in data set [3] was determined as 3.4 min. The same measure, in the same setting: next, `Oc1cccc(C2(OCC(F)(F)C(F)(F)C(F)(F)F)OOC23C2CC4CC(C2)CC3C4)c1` (stereo not shown) [Dioxetane 18, 4-(2,2,3,3,4,4,4-Heptafluorobutoxy)-4-(3-hydroxyphenyl)spiro[1,2-dioxetane-3,2'-tricyclo[3.3.1.1^3,7]decane]]: 4.9 min. `Oc1cccc(C2(Oc3c(F)cccc3F)OOC23C2CC4CC(C2)CC3C4)c1` (stereo not shown) [Dioxetane 19, 4-(2',6'-Difluorophenoxy)-4-(3-hydroxyphenyl)spiro[1,2-dioxetane-3,2'-tricyclo[3.3.1.1^3,7]decane]]: the “t1/2 of decay of chemiluminescence” value in data set [3] was 1.76 min.
